{"source": "patent US20240368135A1", "about": "(VERTEX PHARMACEUTICALS INCORPORATED, priority 2021, published 2024)"}
{"target": "human NaV 1.8 (Homo sapiens, UniProt Q9Y5Y9)", "sequence (Q9Y5Y9 126-399 limits assumed)": "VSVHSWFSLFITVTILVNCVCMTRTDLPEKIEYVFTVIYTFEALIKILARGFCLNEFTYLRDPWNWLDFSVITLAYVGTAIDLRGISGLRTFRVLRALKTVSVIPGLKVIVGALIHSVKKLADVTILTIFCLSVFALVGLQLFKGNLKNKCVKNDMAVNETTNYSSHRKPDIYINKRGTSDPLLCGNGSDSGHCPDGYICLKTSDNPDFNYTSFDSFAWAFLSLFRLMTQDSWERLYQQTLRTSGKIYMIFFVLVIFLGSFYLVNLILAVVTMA", "sequence (Q9Y5Y9 660-890 limits assumed)": "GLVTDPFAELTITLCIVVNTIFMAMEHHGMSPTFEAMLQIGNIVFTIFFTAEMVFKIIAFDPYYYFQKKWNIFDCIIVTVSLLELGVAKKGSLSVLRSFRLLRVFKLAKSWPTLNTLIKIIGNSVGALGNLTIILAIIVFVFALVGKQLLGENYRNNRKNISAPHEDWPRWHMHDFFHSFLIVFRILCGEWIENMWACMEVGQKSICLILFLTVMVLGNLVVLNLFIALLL", "sequence (Q9Y5Y9 1148-1722 limits assumed)": "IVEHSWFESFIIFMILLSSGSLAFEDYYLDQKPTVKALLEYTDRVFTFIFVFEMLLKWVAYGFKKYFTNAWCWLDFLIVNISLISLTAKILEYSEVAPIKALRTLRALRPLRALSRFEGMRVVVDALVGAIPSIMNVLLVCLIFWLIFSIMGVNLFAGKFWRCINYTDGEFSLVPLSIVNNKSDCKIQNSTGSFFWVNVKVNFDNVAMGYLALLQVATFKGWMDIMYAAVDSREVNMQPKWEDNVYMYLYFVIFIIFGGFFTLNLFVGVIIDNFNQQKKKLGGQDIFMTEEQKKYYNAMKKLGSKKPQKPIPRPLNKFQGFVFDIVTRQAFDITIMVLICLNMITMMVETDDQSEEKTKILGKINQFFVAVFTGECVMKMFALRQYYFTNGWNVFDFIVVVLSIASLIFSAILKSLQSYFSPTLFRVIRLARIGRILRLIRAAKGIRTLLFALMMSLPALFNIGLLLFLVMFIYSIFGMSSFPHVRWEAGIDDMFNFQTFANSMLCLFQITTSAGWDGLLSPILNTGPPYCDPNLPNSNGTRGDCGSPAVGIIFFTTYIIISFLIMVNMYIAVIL", "experiment": "E-VIPR assay detecting and measuring NaV inhibition properties", "format": "cell-based", "settings": "HEK cells expressing truncated human NaV 1.8; in the presence of human serum (compound numbers followed by *); read-out: IC50 in the E-VIPR Assay, performed in the presence of human serum", "in_short": "(§1)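 Membrane potential was followed by coumarin/oxonol FRET during electrical field stimulation of matrigel-seeded HEK cells carrying truncated human NaV1.8 plus KIR2.1. Dosing used 11 points, 3-fold steps, top 300 nM final, 0.625% DMSO, with or without 25% human serum.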", "units": {"IC50": "µM"}}
{"molecule": "COc1c([C@@H]2[C@@H](C(=O)Nc3ccnc(C(C)O)c3)O[C@](C)(C(F)(F)F)[C@@H]2C)ccc(F)c1F", "note": "(single isomer, unassigned) [Compound 531]", "IC50": "≥ 1"}
{"molecule": "COc1c([C@@H]2C[C@](C)(C(F)(F)F)O[C@H]2C(=O)Nc2ccnc(C(O)CO)c2)ccc(F)c1F", "note": "(single isomer, unassigned) [Compound 685]", "IC50": "0.01 to 0.1"}
{"molecule": "COc1c([C@H]2C[C@@](C)(C(F)(F)F)O[C@@H]2C(=O)Nc2ccnc(C(O)CO)c2)ccc(F)c1F", "note": "(single isomer, unassigned) [Compound 686]", "IC50": "≥ 1"}
{"molecule": "COc1c([C@@H]2C[C@](C)(C(F)(F)F)O[C@H]2C(=O)Nc2cc(C(O)CO)ncc2F)ccc(F)c1F", "note": "(single isomer, unassigned) [Compound 689]", "IC50": "0.1 to 1"}
{"molecule": "COc1c([C@H]2C[C@@](C)(C(F)(F)F)O[C@@H]2C(=O)Nc2cc(C(O)CO)ncc2F)ccc(F)c1F", "note": "(single isomer, unassigned) [Compound 690]", "IC50": "≥ 1"}
{"molecule": "COc1c(C2CC(C)(C(F)(F)F)OC2C(=O)Nc2ccnc(C(O)C(C)O)c2)ccc(F)c1F", "note": "(single isomer, unassigned) [Compound 693]", "IC50": "≥ 1"}
{"molecule": "COc1c(C2CC(C)(C(F)(F)F)OC2C(=O)Nc2ccnc(C(O)C(C)O)c2)ccc(F)c1F", "note": "(single isomer, unassigned) [Compound 694]", "IC50": "0.01 to 0.1"}
{"molecule": "COc1c(C2CC(C)(C(F)(F)F)OC2C(=O)Nc2ccnc(C(O)C(C)O)c2)ccc(F)c1F", "note": "(single isomer, unassigned) [Compound 695]", "IC50": "≥ 1"}
{"target": "human NaV 1.8 (Homo sapiens, UniProt Q9Y5Y9)", "experiment": "E-VIPR assay detecting and measuring NaV inhibition properties", "format": "cell-based", "settings": "HEK cells expressing truncated human NaV 1.8; no human serum; read-out: IC50 in the E-VIPR Assay", "in_short": "as §1", "units": {"IC50": "µM"}}
{"molecule": "CNC1CCN(c2cc(NC(=O)[C@@H]3O[C@@](C)(C(F)(F)F)[C@@H](C)[C@H]3c3ccc(F)c(F)c3OC)ccn2)C1=O", "note": "(single isomer, unassigned) [Compound 501, rel-(2R*,3S*,4S*,5R*)-3-(3,4-difluoro-2-methoxyphenyl)-4,5-dimethyl-N-(2-(3-(methylamino)-2-oxopyrrolidin-1-yl)pyridin-4-yl)-5-(trifluoromethyl)tetrahydrofuran-2-carboxamide]", "IC50": "0.01 to 0.1"}
{"molecule": "COc1c([C@H]2[C@H](C(=O)Nc3ccnc(N4C[C@H]5CC[C@@H](C4=O)N5C)c3)O[C@@](C)(C(F)(F)F)[C@H]2C)ccc(F)c1F", "note": "(single isomer, unassigned) [Compound 503, rel-(2R*,3S*,4S*,5R*)-3-(3,4-difluoro-2-methoxyphenyl)-4,5-dimethyl-N-(2-((1S,5R)-8-methyl-2-oxo-3,8-diazabicyclo[3.2.1]octan-3-yl)pyridin-4-yl)-5-(trifluoromethyl)tetrahydrofuran-2-carboxamide]", "IC50": "< 0.01"}
{"molecule": "COc1c([C@H]2[C@H](C(=O)Nc3ccnc(N4C[C@@H]5CC[C@H](C4=O)N5C)c3)O[C@@](C)(C(F)(F)F)[C@H]2C)ccc(F)c1F", "note": "(single isomer, unassigned) [Compound 504, rel-(2R*,3S*,4S*,5R*)-3-(3,4-difluoro-2-methoxyphenyl)-4,5-dimethyl-N-(2-((1R,5S)-8-methyl-2-oxo-3,8-diazabicyclo[3.2.1]octan-3-yl)pyridin-4-yl)-5-(trifluoromethyl)tetrahydrofuran-2-carboxamide]", "IC50": "0.01 to 0.1"}
{"molecule": "COc1c([C@H]2[C@H](C(=O)Nc3ccnc(N4CC(N(C)C)CC4=O)c3)O[C@@](C)(C(F)(F)F)[C@H]2C)ccc(F)c1F", "note": "(single isomer, unassigned) [Compound 505, rel-(2R*,3S*,4S*,5R*)-3-(3,4-difluoro-2-methoxyphenyl)-N-(2-(4-(dimethylamino)-2-oxopyrrolidin-1-yl)pyridin-4-yl)-4,5-dimethyl-5-(trifluoromethyl)tetrahydrofuran-2-carboxamide]", "IC50": "0.01 to 0.1"}
{"molecule": "COc1c([C@H]2[C@H](C(=O)Nc3ccnc(N4CCC(N(C)C)C4=O)c3)O[C@@](C)(C(F)(F)F)[C@H]2C)ccc(F)c1F", "note": "(single isomer, unassigned) [Compound 507, rel-(2R*,3S*,4S*,5R*)-3-(3,4-difluoro-2-methoxyphenyl)-N-(2-(3-(dimethylamino)-2-oxopyrrolidin-1-yl)pyridin-4-yl)-4,5-dimethyl-5-(trifluoromethyl)tetrahydrofuran-2-carboxamide]", "IC50": "0.01 to 0.1"}
{"molecule": "COc1c([C@H]2[C@H](C(=O)Nc3ccnc(N4C[C@H]5C[C@@H](C4=O)N5C)c3)O[C@@](C)(C(F)(F)F)[C@H]2C)ccc(F)c1F", "note": "(single isomer, unassigned) [Compound 509, rel-(2R*,3S*,4S*,5R*)-3-(3,4-difluoro-2-methoxyphenyl)-4,5-dimethyl-N-(2-((1S,5R)-6-methyl-2-oxo-3,6-diazabicyclo[3.1.1]heptan-3-yl)pyridin-4-yl)-5-(trifluoromethyl)tetrahydrofuran-2-carboxamide]", "IC50": "0.01 to 0.1"}
{"molecule": "COc1c([C@H]2[C@H](C(=O)Nc3ccnc(N4C[C@@H]5C[C@H](C4=O)N5C)c3)O[C@@](C)(C(F)(F)F)[C@H]2C)ccc(F)c1F", "note": "(single isomer, unassigned) [Compound 510, rel-(2R*,3S*,4S*,5R*)-3-(3,4-difluoro-2-methoxyphenyl)-4,5-dimethyl-N-(2-((1R,5S)-6-methyl-2-oxo-3,6-diazabicyclo[3.1.1]heptan-3-yl)pyridin-4-yl)-5-(trifluoromethyl)tetrahydrofuran-2-carboxamide]", "IC50": "0.01 to 0.1"}
{"molecule": "CN=S(C)(=O)c1cc(NC(=O)C2OC(C)(C(F)(F)F)C(C)C2c2ccc(F)c(F)c2OC)ccn1", "note": "(single isomer, unassigned) [Compound 529, 3-(3,4-difluoro-2-methoxy-phenyl)-N-[2-(N,S-dimethylsulfonimidoyl)-4-pyridyl]-4,5-dimethyl-5-(trifluoromethyl)tetrahydrofuran-2-carboxamide]", "IC50": "0.1 to 1"}
{"molecule": "CN=S(C)(=O)c1cc(NC(=O)C2OC(C)(C(F)(F)F)C(C)C2c2ccc(F)c(F)c2OC)ccn1", "note": "(single isomer, unassigned) [Compound 530, 3-(3,4-difluoro-2-methoxy-phenyl)-N-[2-(N,S-dimethylsulfonimidoyl)-4-pyridyl]-4,5-dimethyl-5-(trifluoromethyl)tetrahydrofuran-2-carboxamide]", "IC50": "< 0.01"}
{"molecule": "COc1c([C@H]2[C@H](C(=O)Nc3ccnc(C(C)O)c3)O[C@@](C)(C(F)(F)F)[C@H]2C)ccc(F)c1F", "note": "(single isomer, unassigned) [Compound 532]", "IC50": "< 0.01"}
{"molecule": "COCC(O)c1cc(NC(=O)[C@@H]2O[C@@](C)(C(F)(F)F)[C@@H](C)[C@H]2c2ccc(F)c(F)c2OCCN2CCOCC2)ccn1", "note": "(single isomer, unassigned) [Compound 595]", "IC50": "0.01 to 0.1"}
{"molecule": "COCC(O)c1cc(NC(=O)[C@@H]2O[C@@](C)(C(F)(F)F)[C@@H](C)[C@H]2c2ccc(F)c(F)c2OCCN2CC(F)C2)ccn1", "note": "(single isomer, unassigned) [Compound 608, rel-(2R*,3S*,4S*,5R*)-3-(3,4-difluoro-2-(2-(3-fluoroazetidin-1-yl)ethoxy)phenyl)-N-(2-(1-hydroxy-2-methoxyethyl)pyridin-4-yl)-4,5-dimethyl-5-(trifluoromethyl)tetrahydrofuran-2-carboxamide]", "IC50": "0.01 to 0.1"}
{"molecule": "COCC(O)c1cc(NC(=O)[C@@H]2O[C@@](C)(C(F)(F)F)[C@@H](C)[C@H]2c2ccc(F)c(F)c2OCCN2CC3CC(C2)O3)ccn1", "note": "(single isomer, unassigned) [Compound 610, rel-(2R*,3S*,4S*,5R*)-3-(2-(2-(6-oxa-3-azabicyclo[3.1.1]heptan-3-yl)ethoxy)-3,4-difluorophenyl)-N-(2-(1-hydroxy-2-methoxyethyl)pyridin-4-yl)-4,5-dimethyl-5-(trifluoromethyl)tetrahydrofuran-2-carboxamide]", "IC50": "0.01 to 0.1"}
